Data: patent US20230210816A1 (priority 2020, published 2023)
Like-named read-outs stand apart in the source and are kept apart here.

What was measured:
PICV-GFP = assay: microbe, parasite or virus in culture; format: cell-based; settings: Pichinde virus, Vero C1008, 48 h
LASV Josiah = assay: microbe, parasite or virus in culture; format: cell-based, Lassa virus; settings: Mammarenavirus lassaense, Vero C1008
[1] = test system: MLV pseudovirus bearing PICV WT glycoprotein; assay: microbe, parasite or virus in culture; format: cell-based; settings: Vero, 24 h
[2] = test system: MLV pseudovirus bearing MARV Musoke glycoprotein; assay: microbe, parasite or virus in culture; format: cell-based
arenaviruses = assay: organism not typed; format: cell-based; settings: read-out: in vitro IC50
[3] = human, in vivo, cited from earlier work
[4] = test system: MLV pseudovirus bearing JUNV glycoprotein; assay: microbe, parasite or virus in culture; format: cell-based; settings: Vero, 24 h
EBOV and MARV = assay: microbe, parasite or virus in culture; format: cell-based; settings: Zaire ebolavirus, read-out: in vitro IC50
[5] = test system: MLV pseudovirus bearing MARV Angola glycoprotein; assay: microbe, parasite or virus in culture; format: cell-based
[6] = test system: LASV and JUNV pseudoviruses; assay: organism not typed; format: cell-based
[7] = test system: MLV pseudovirus bearing LCMV glycoprotein; assay: microbe, parasite or virus in culture; format: cell-based; settings: Vero, 24 h

| Compound | IC50 (PICV-GFP) | IC50 (LASV Josiah) | IC50 [1] | IC50 [2] | IC50 (arenaviruses) | Cmax ([3]; po) | Cmax [3] | IC50 [4] | IC50 (EBOV and MARV) | IC50 [5] | fold reduction of IC50 of arbidol by combination [6] | IC50 ([6]; read-out: IC50 of arbidol in combination) | IC50 [7] |
| --- | --- | --- | --- | --- | --- | --- | --- | --- | --- | --- | --- | --- | --- |
| O=C(Nc1ccc([N+](=O)[O-])cc1Cl)c1cc(Cl)ccc1O [niclosamide] | < 0.2 µM | 0.2 µM | – | – | – | – | – | – | – | – | – | – | – |
| CCN(CC)Cc1cc(Nc2ccnc3cc(Cl)ccc23)ccc1O [amodiaquine] | 4.5 µM | – | – | – | – | – | – | – | – | – | – | – | – |
| CCOC(=O)c1c(CSc2ccccc2)n(C)c2cc(Br)c(O)c(CN(C)C)c12 [arbidol] | 8.4 µM | 10 µM | 7.4 µM | 3.5 µM | 6 to 10 µM | 900 to 1500 nM | 4000 nM | 6.4 µM | 2.7 to 3.9 µM | 3.9 µM | about 2 fold | 3 to 4 µM | 7.4 µM |
